Earlier results as cited in patent US6790849B2, “Methods and compositions using optically pure (-) cetirizine in combination with leukotriene inhibitors or decongestants” (Sepracor Inc., priority 1998, dated 2004).
Where two headings read alike, the source gives them in different places.

Experiments:
LTD4 [1] = conditions: in vivo
LTD4 [2] = conditions: in vivo; remark: listed apart in the source
[3] = tested on: three leukotrienes in conducting airway smooth muscle; conditions: in vitro, laboratory animals and humans
LTD4 [4] = conditions: guinea pigs
[5] = tested on: allergen- or exercise-induced bronchoconstriction; conditions: patients, doses as large as 20 mg
LTB4 formation = conditions: several species
[6] = tested on: leukotriene (LTH4, LTC4, LTD4, and LTE4) formation
[7] = tested on: leukotriene-dependent smooth muscle contractions; conditions: in vitro, guinea pig and human airways
[8] = for efficacy: 373 patients

COc1cc(C(=O)NS(=O)(=O)c2ccccc2C)ccc1Cc1cn(C)c2ccc(NC(=O)OC3CCCC3)cc12 [zafirlukast, 4-(5-cyclopentyloxy-carbonylamino-1-methyl-indol-8-ylmethyl)-3-methoxy-N-o-tolylsulfonylbenzamide]
intradermal LTD4-induced increases in cutaneous vascular permeability (LTD4 [1]): prevented
inhaled LTD4-induced influx of eosinophils into animal lungs (LTD4 [2]): inhibited
adverse effects reported in some patients: headache, infection, nausea, diarrhea, pain, asthenia, abdominal pain, dizziness, myalgia, fever, vomiting, SGPT elevation, and dyspepsia
contractile activity of three leukotrienes in conducting airway smooth muscle [3]: antagonized

CC(C)(C)c1ccc(C(O)CCCN2CCC(C(O)(c3ccccc3)c3ccccc3)CC2)cc1 (stereo not drawn) [terfenadine]
increase in airway resistance caused by LTD4 (LTD4 [4]): suppressed

O=C(O)COCCN1CCN(C(c2ccccc2)c2ccc(Cl)cc2)CC1 (racemic) [cetirizine]
preventing allergen- or exercise-induced bronchoconstriction [5]: not uniformly effective

CC(c1cc2ccccc2s1)N(O)C(N)=O (racemic) [zileuton, (±)-1-(1-Benso[b]thien-2-ylethyl)-1-hydroxyurea]
LTB4 formation ex vivo (LTB4 formation): inhibitor
leukotriene (LTH4, LTC4, LTD4, and LTE4) formation in vitro [6]: inhibit
leukotriene-dependent smooth muscle contractions [7]: inhibits
efficacy ([8]; 400 mg): failed to do so
efficacy ([8]; 600 mg four times daily): required to provide efficacy
adverse effects reported in some patients ([8]; some patients): headache, pain, asthenia, dyspepsia, nausea, and myalgia
